Results as given in patent US6809077B2, “Cyclosporin analogs for the treatment of autoimmune diseases” (Enanta Pharmaceuticals, Inc., priority 2001, dated 2004).

What was measured:
[1] = tested on: NFAT proteins (pNFAT-Luc luciferase) in Jurkat cells; assay: NFAT reporter gene assay, pNFAT-Luc plasmid in Jurkat cells; type: cell-based, human; details: Jurkat cells transfected with pNFAT-Luc, treated with 60 ng/ml of PMA and 1 μg/ml of inomycin in combination
Excerpt: (§1) NFAT activation follows precisely the activation of calcineurin by increased free calcium levels in the cytoplasm. Researchers from diverse fields are interested in the NFAT family of transcription factors, which are potential targets for newer and safer immunosuppressive drugs. In addition, the activation of NFAT proteins involves various cellular signal transduction pathways, including calcium mobilization and mitogen-activated protein kinase (MAP kinase) pathways linked to T-cell receptors and Ras1. To assist researchers probing the activity of NFAT proteins, Stratagene has developed a PathDetect cis-reporter plasmid, the pNFAT-Luc reporter plasmid (Stratagene, Inc. catalog #219094), containing the NFAT binding site from the human IL-2 gene.2,7-9. The NEAT cis-reporting system includes the transfection-ready pNFAT-Luc reporter plasmid and the pCIS-CK negative control plasmid.
(§2) The backbone of the 5749-base-pair pNFAT-Luc plasmid is the pFR-Luc reporter plasmid of the aforementioned PathDetect trans-reporting system. […]
(§3) Cyclosporin inhibits the activity of calcineurin, a protein phosphatase regulated by intracellular calcium mobilization. […] The inhibition of luciferase expression from pNFAT-Luc in the present model, in both Jurkat and CHO cells induced by PMA and ionomycin, was monitored for cyclosporin (as a positive control) and the cyclosporin analogs of the present invention.

[2] = tested on: NFAT proteins (pNFAT-Luc luciferase) in cells transfected with pNFAT-Luc; assay: NFAT reporter gene assay, cells transfected with pNFAT-Luc, single stimulus; type: cell-based; details: treated with either PMA or onomycin alone
Excerpt: as §1
The backbone of the 5749-base-pair pNFAT-Luc plasmid is the pFR-Luc reporter plasmid of the aforementioned PathDetect trans-reporting system. To this backbone, the GAL4 binding element was replaced with four direct repeats of the NFAT binding sequence (−286 to −257) from the IL-2 gene promoter, the most studied and widely used NFAT binding sequence. […]

[3] = tested on: NFAT proteins (pNFAT-Luc luciferase) in Chinese hamster ovary cells (CHO cells); assay: NFAT reporter gene assay, pNFAT-Luc plasmid in CHO cells; type: cell-based; details: CHO cells transfected with pNFAT-Luc, treated with 60 ng/ml of PMA and 1 μg/ml of inomycin in combination
Excerpt: as §1, §2, §3

SMILES | luciferase activity increased [1] | increase in luciferase activity [2] | luciferase activity increased [3]
CCCCCCCCCCCCCC(=O)O[C@@H]1[C@@H](C)[C@@]2(O)[C@@H](C=C(CO)C[C@]3(O)C(=O)C(C)=C[C@@H]23)[C@@H]2C(C)(C)[C@]12OC(C)=O [PMA] | 13 fold | did not show a significant increase | 16 fold
C[C@H](CCC(=O)O)C[C@H](C)C[C@H](C)C(=O)/C=C(\O)[C@H](C)C[C@H](C)C/C=C/[C@@H](C)[C@@H](O)[C@@H](C)[C@@H](O)C[C@@H]1CC[C@@](C)([C@H]2CC[C@@](C)([C@@H](C)O)O2)O1 [onomycin] |  | did not show a significant increase | 
